Assay results as given in patent US20080300298A1, “Honokiol Derivates For the Treatment of Proliferative Disorders” (priority 2005, published 2008).

How the values were obtained:
Format in all cases: cell-based, human
[1] = system: tumor cells isolated from patients with relapsed refractory MM; assay: cytotoxicity against patient MM cells (CD38high, flow cytometry); conditions: 8 ug/ml, 48 h, N=6, mean ±SD
Protocol: (§1) Assessment of HNK-induced cytotoxicity against patient MM cells: Cytotoxicity of HNK against fresh MM cells was determined as previously determined, see, for example, Mitsiades et al Cancer Cell. 2004; 5:221-230. Fresh MNCs separated from bone marrow samples derived from patients with MM were incubated with PE-conjugated anti-CD138 antibody and/or FITC-conjugated anti-CD38 antibody (BD Biosciences, San Diego, Calif.) for 30 minutes on ice and washed, followed by analysis using EPICS XL flow cytometer (Beckman Coulter, Hialeah, Fla.). A CD38^high fraction enriched for MM cells was determined in side and forward scatter panel in each case. The expression of CD138 on gated cells was also evaluated. After HNK-treatment for 48 h, cells were harvested and percentage of CD38^high cells with or without HNK-treatment was evaluated. […] Cells were stained with propidium iodide (PI; 50 μg/mL; Sigma, St Louis, Mo.), and cell cycle profile was determined by using the program M software on an EPICS XL flow cytometer (Beckman Coulter, Hialeah, Fla.). […] Fluorescence intensity of TUNEL and APO 2.7 staining was determined using on EPICS XL flow cytometer. Cytotoxicity was determined by trypan blue exclusion assay. […] Cell growth and induction of apoptosis were determined both by colorimetric assay and now cytometric detection of APO2.7 after 48 h treatment. […] DNA synthesis was measured by [^3H]-thymidine uptake. […]

[2] = system: caspases, PARP, AIF in MM.1S cells; assay: Western blotting of apoptotic pathway; conditions: 10 ug/ml
[3] = system: MM.1S cells; assay: combination with bortezomib
Protocol: as §1

C=CCc1ccc(O)c(-c2ccc(O)c(CC=C)c2)c1 [HNK, Honokiol]
percentage of CD38high cells compared to control cultures [1]: 26.2±15.8%
cleavage of caspases and PARP ([2]; 12 and 24 h): Cleavage of caspases 7, 8, 9 and PARP were induced
release of AIF ([2]; 24 h): induced release of mitochondrial pro-apoptotic protein AIF to cytosol
Bortezomib-induced up-regulation of Hsp27, p-Hsp27 and Hsp70 ([3]; 8 h, Western blotting): significantly blocked
cytotoxicity and apoptosis of combined treatment with bortezomib ([3]; HNK and bortezomib, 48 h): enhanced the cytotoxicity and induction of apoptosis compared to each drug alone
